Experimental data from patent US11873303B2, “Substituted pyrazoles as type II IRAK inhibitors” (Merck Patent GmbH, priority 2018, dated 2024).
pIC50: −log10 of the molar value.

Columns and labels:
[1] = system: TLR7 induced IL-6 secretion in human mononuclear cells (PBMC's); test: TLR7 induced IL-6 in human PBMC's; type: cell-based; details: TLR7 ligand 2 uM overnight, IL-6 AlphaLISA
Experimental: TLR7 Induced IL-6 in Human PBMC's
Human PBMC assay was used as one of the functional assays to monitor the activity of IRAK1 and IRAK4 small molecule inhibitors on TLR7 induced IL-6 secretion in human mononuclear cells (PBMC's). Human PBMCs were prepared from buffy coats (whole blood enriched with leukocytes and platelets) obtained from healthy volunteers used either fresh or frozen were plated in assay media (RPMI+2% P/S/L-glu+10% HI-FBS) and pre-treated with compounds in DMSO/media (range of concentrations from 25 uM to 0.4 nM) or controls (0.25% DMSO) for 30 minutes at 37° C. in assay media. Following pre-treatment with IRAK1 and IRAK4 inhibitors, PBMC's were stimulated with TLR7 specific ligand (2 uM) overnight (16-18 hrs) at 37° C. After incubation supernatant was transferred to 384 well PE AlphaPlate-384 and IL-6 was quantified using Perkin Elmer IL-6 Alpha LISA kit (AL223C). Plates were read on an Envision® plate reader with Alpha Technology®.

[2] = biological target: T1, IRAK4 (human purified recombinant enzyme His-TEV-IRAK4 (1-460)) (Homo sapiens, UniProt Q9NWZ3); test: IRAK4 enzymatic assay (ADP-Glo luminescence); type: biochemical; details: human recombinant IRAK4, ATP 2 μM, STK1-biotin peptide
T1 construct: His-TEV-IRAK4 (1-460); His (N); TEV cleavage site (N)
T1 sequence (Q9NWZ3 1-460): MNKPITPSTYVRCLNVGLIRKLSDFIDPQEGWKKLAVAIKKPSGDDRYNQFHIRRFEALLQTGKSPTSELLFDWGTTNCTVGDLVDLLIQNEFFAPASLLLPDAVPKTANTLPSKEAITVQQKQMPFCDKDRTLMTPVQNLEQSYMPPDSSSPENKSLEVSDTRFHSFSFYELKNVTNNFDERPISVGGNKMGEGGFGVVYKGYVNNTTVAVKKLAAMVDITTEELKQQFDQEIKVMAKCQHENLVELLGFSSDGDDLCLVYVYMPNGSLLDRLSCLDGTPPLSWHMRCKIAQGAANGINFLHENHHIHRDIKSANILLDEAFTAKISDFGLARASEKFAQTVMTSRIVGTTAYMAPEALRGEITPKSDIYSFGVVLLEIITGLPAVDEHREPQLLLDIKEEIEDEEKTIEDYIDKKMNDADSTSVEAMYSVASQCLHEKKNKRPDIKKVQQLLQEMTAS
Experimental: IRAK4 is a human purified recombinant enzyme (His-TEV-IRAK4 (1-460)). In this assay, IRAK4 hydrolysed ATP, autophosphorylated and phosphorylated a Serine/Threonine generic peptidic substrate (STK: 61ST1BLC from CisBio International). Measurement of IRAK-4 inhibition was performed in 384-well format based on a luminescence assay (ADP-Glo™ Kinase Assay from Promega). Purified human recombinant IRAK4 (0.3 μg/ml) and serial diluted compounds in DMSO (range of concentration from 10 μM to 0.5 nM) or controls (1% DMSO) were incubated for 15 minutes at RT in assay buffer containing 50 mM Hepes pH 7.0, Fatty acid-free BSA 0.1%, Dithiothreitol (DTT) 2 mM, MgCl2 10 mM, EGTA 0.5 mM, Triton X-100 0.01%, MnCl2 5 mM. The kinase reaction was then initiated by the addition of ATP (2 μM) and the peptidic substrate STK1-biotin peptide (300 nM). After 2 hours of incubation at RT, the reaction was stopped and the unconsumed ATP depleted by the addition of ADP-Glo™ Reagent according to supplier instructions. After 40 minutes of incubation at RT, the Kinase Detection Reagent was then added to the assay plate according to supplier instructions. After 20 minutes of incubation at RT, the luminescence signal was measured with a plate-reading luminometer (PerkinElmer Envision or equivalent reader).

[3] = biological target: T2, IRAK1 (human purified recombinant enzyme His-TEV-IRAK1 (194-712)) (Homo sapiens, UniProt P51617); test: IRAK1 enzymatic assay (ADP-Glo luminescence); type: biochemical; details: human recombinant IRAK1, ATP 1 μM
T2 construct: His-TEV-IRAK1 (194-712); His (N); TEV cleavage site (N)
T2 sequence (P51617 194-712): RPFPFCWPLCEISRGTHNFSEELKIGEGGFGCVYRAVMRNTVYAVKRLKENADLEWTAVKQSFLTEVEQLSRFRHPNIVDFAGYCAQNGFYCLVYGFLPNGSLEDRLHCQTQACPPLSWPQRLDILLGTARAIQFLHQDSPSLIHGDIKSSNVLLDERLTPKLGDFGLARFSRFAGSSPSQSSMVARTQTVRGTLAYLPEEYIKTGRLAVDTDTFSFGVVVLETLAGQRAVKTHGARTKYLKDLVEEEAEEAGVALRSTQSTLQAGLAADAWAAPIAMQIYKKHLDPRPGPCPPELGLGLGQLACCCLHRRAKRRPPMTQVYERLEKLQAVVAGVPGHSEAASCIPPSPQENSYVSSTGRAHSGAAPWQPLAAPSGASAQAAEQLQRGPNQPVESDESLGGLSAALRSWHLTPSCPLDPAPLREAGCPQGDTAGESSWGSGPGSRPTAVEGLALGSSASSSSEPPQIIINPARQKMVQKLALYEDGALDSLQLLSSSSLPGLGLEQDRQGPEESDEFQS
Experimental: IRAK1 is a human purified recombinant enzyme (His-TEV-IRAK1 (194-712)). In this assay, IRAK1 hydrolysed ATP and autophosphorylated. Measurement of IRAK-1 inhibition was performed in 384-well format based on luminescence assay (ADP-Glo™ Kinase Assay from Promega). Purified human recombinant IRAK1 (0.3 μg/ml) and serial diluted compounds in DMSO (range of concentration from 10 μM to 0.5 nM) or controls (1% DMSO) were incubated for 15 minutes at RT in assay buffer containing 50 mM Hepes pH 7.0, Fatty acid-free BSA 0.1%, Dithiothreitol (DTT) 2 mM, MgCl2 10 mM, EGTA 0.5 mM, Triton X-100 0.01%. The kinase reaction was then initiated by the addition of ATP at a concentration of 1 μM. After 2 hours of incubation at RT, the reaction was stopped and the unconsumed ATP depleted by the addition of ADP-Glo™ Reagent according to supplier instructions. After 40 minutes of incubation at RT, the Kinase Detection Reagent was then added to the assay plate according to supplier instructions. After 20 minutes of incubation at RT, the luminescence signal was measured with a luminometer (PerkinElmer Envision or equivalent reader).

SMILES	pIC50 [1]	pIC50 [2]	melting point [°C]	pIC50 [3]
Cc1ccc(-n2nc(C(C)(C)CO)cc2NC(=O)Nc2ccc(-c3nn(C)c4ncnc(N)c34)cc2Cl)cc1 [Example 17, 1-(4-{4-amino-1-methyl-1H-pyrazolo[3,4-d]pyrimidin-3-yl}-2-chlorophenyl)-3-[3-(1-hydroxy-2-methylpropan-2-yl)-1-(4-methylphenyl)-1H-pyrazol-5-yl]urea]	> 7.00	5.30 to 6.00	192 to 194	> 7.00
Cc1ccc(-n2nc(C3(C)COC3)cc2NC(=O)Nc2ccc(-c3nn(C)c4ncnc(N)c34)cc2Cl)cc1 [Example 18, 1-(4-{4-amino-1-methyl-1H-pyrazolo[3,4-d]pyrimidin-3-yl}-2-chlorophenyl)-3-[3-(3-methyloxetan-3-yl)-1-(4-methylphenyl)-1H-pyrazol-5-yl]urea]	6.00 to 7.00	5.30 to 6.00	170 to 172	> 7.00
